Measurements taken from patent publication US20100143937A1 (priority 2007, published 2010).

Target: T1, NAPE-PLD (Homo sapiens, UniProt Q6IQ20)
T1 construct: made in house; host or cells: baculovirus/insect cells, pDEST8.1 vector; purified by metal chelating chromatography
T1 sequence (Q6IQ20 with tags, fused parts or gaps): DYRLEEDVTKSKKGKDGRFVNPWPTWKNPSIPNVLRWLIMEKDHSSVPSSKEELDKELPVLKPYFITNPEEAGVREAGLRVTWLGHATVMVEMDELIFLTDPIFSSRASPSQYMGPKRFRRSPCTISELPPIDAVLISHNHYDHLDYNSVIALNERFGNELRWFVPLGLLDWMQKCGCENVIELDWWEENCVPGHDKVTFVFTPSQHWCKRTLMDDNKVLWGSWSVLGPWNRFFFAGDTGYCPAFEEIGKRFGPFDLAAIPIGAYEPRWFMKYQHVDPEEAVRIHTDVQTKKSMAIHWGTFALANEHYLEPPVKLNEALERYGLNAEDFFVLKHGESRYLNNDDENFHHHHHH
Experiment: NAPE-PLD PED6 fluorescence assay, Km determination
Assay type: biochemical
Conditions: substrate PED6 with NAPE-PLD; FIG. 8
Method: General assay conditions use the following final concentrations of the following material: NAPE-PLD at 14 nM, PED6 (substrate) at 10 μM, test compounds at 10 μM, DMSO at 1%. PED6 is purchased (see Table 1) as a lyophilized powder and stored at −20° C. A fresh substrate solution should be prepared daily. 1 mg of PED6 is dissolved in 0.88 ml of ethyl acetate and diluted into 43.12 ml assay buffer to make is a 20 μM working solution. PED6 must be kept out of direct light, as it is light sensitive.
Test compounds are diluted in an appropriate buffer. A non-limiting example is 50 mM Tris-HCl, pH 8.0, the buffer may contain DMSO, for instance, 10% DMSO. Assay buffer was 50 mM Tris-HCl, pH 8.0, 0.05% Triton X-100 and stop solution is 0.4 M HCl, 0.05% Triton X-100.
Order of addition of reagents and equipment used: • 1) Dilute enzyme (NAPE-PLD, 22 μM) to 28 nM in assay buffer. • 2) Prepare substrate (20 μM in assay buffer). • 3) Add 10 μl NAPE-PLD to assay plate using FLEXDROP. • 4) Add 2 μl compound (from compound plate) to appropriate wells of assay plate using Cy-Bio. • 5) Incubate plates, covered, at room temperature for 30 minutes (compound preincubation). • 6) Add 10 μl PED6 to assay plate using FLEXDROP. • 7) Incubate plates, covered, at room temperature for 30 minutes (enzyme reaction) • 8) Terminate the reaction by adding 20 μl of stop solution, using FLEXDROP • 9) Read on LJL Acquest. […]

CCCCCCCCCCCCCCCC(=O)OC[C@H](COP(=O)(O)OCCNC(=O)CCCCCNc1ccc([N+](=O)[O-])cc1[N+](=O)[O-])OC(=O)CCCCC1=[N+]2C(=Cc3c(C)cc(C)n3[B-]2(F)F)C=C1 [PED6]
Km: 3.9 µM
